Target: Programmed cell death 1 ligand/protein 1 (Homo sapiens, UniProt Q15116+Q9NZQ7)
Assay: PD1-PDL1 HTRF Binding Activity Assay
Description: 1) Pre-diluted compound solution, 4 μL of Tag1-PD-L1 and 4 μL of Tag2-PD1 were added to each well of a 384-well plate:2) After the mixture was incubated at room temperature for 15 min, 5 μL of anti-Tag1-Eu3+ antibody and 5 μL of anti-Tag2-XL665 antibody were then added;3) After incubated for 2 hrs at room temperature or overnight at 4° C., plates were read on Envision of Pelkin Elmer; and readings at 665 nm and 620 nm were recorded, and the ratio of the two readings was taken as a reading for each well;4) The reading of each well after compound treatment was compared with the reading of DMSO treated wells to obtain the percent inhibition of the compound;5) IC50 values of compounds and positive compounds of the examples of the present invention were determined by non-linear regression analysis of percent inhibition at different compound concentrations.

Chain of Programmed cell death 1 ligand/protein 1 (Q9NZQ7 whole entry): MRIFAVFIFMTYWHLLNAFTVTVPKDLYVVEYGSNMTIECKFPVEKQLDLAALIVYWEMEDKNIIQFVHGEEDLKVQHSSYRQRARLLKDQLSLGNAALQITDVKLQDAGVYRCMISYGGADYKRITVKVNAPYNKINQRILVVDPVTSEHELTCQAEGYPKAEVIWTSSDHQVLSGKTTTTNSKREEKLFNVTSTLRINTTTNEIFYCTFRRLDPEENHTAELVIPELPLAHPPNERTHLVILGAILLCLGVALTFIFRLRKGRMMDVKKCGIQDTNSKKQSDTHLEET
Chain of Programmed cell death 1 ligand/protein 1 (Q15116 whole entry): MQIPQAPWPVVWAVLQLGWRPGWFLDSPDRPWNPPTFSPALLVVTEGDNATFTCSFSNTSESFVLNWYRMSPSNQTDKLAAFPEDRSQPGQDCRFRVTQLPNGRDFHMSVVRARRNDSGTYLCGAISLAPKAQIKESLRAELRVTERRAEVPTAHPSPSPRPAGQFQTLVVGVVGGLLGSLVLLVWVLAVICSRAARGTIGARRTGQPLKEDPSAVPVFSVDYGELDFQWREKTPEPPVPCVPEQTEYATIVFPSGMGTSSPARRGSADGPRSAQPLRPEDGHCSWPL

CC(C)N1CCc2cc(C(=O)Nc3cccc(-c4cccc(NC(=O)c5cc(C6CC6)c(CN6CCCC[C@H]6C(=O)O)cn5)c4Cl)c3Cl)ncc2C1 [US12552811, Example 32]
IC50: 0.661 nM

— BindingDB's records for patent US12552811 (Abbisko Therapeutics Co., 2026)
